pEC50: −log10 of the molar value. Calls of active or inactive are those of the source. The rule behind the calls is not given here. Where only a bound is given, the exact number is not on record here.

Assay type in all cases: cell-based
One experiment has as its target Ryanodine receptor 2 (Mus musculus, UniProt E9Q401). The experiment in a line: Inhibition of Full length wild type mouse RyR2 expressed in Flp-In-T-REx-293 cells assessed as increase in Ca2+ release endoplasmic reticulum by flex-station 3 fluorometer analysis.
Experiment [1] deals with Ryanodine receptor 1 (Homo sapiens) (UniProt P21817). Briefly: Inhibition of RyR1 (unknown origin) expressed in HEK293 cells assessed as caffeine-induced increase in Ca2+ release at 100 uM by flex-station 3 fluorometer analysis.
Experiment [2] deals with Cardiomyocyte. Briefly: Inhibition of RyR2 R420W mutant in mouse Cardiomyocyte assessed as 0.5 Hz field-pulse stimulated suppression of abnormal Ca2+ waves incubated for 3 mins by ROI analysis.
Experiment [3] concerns HEK293. Briefly: Inhibition of RyR3 R2163C mutant (unknown origin) expressed in HEK293 cells assessed as caffeine-induced increase in Ca2+ release at 100 uM. Conditions: Homo sapiens.
Experiment [4] deals with Ryanodine receptor 2 (Mus musculus) (UniProt E9Q401). Briefly: Inhibition of Full length wild type mouse RyR2 expressed in Flp-In-T-REx-293 cells assessed as increase in Ca2+ release in endoplasmic reticulum at 30 uM by flex-station 3 fluorometer analysis.
Sequence of Ryanodine receptor 2 (Mus musculus) (E9Q401 whole entry): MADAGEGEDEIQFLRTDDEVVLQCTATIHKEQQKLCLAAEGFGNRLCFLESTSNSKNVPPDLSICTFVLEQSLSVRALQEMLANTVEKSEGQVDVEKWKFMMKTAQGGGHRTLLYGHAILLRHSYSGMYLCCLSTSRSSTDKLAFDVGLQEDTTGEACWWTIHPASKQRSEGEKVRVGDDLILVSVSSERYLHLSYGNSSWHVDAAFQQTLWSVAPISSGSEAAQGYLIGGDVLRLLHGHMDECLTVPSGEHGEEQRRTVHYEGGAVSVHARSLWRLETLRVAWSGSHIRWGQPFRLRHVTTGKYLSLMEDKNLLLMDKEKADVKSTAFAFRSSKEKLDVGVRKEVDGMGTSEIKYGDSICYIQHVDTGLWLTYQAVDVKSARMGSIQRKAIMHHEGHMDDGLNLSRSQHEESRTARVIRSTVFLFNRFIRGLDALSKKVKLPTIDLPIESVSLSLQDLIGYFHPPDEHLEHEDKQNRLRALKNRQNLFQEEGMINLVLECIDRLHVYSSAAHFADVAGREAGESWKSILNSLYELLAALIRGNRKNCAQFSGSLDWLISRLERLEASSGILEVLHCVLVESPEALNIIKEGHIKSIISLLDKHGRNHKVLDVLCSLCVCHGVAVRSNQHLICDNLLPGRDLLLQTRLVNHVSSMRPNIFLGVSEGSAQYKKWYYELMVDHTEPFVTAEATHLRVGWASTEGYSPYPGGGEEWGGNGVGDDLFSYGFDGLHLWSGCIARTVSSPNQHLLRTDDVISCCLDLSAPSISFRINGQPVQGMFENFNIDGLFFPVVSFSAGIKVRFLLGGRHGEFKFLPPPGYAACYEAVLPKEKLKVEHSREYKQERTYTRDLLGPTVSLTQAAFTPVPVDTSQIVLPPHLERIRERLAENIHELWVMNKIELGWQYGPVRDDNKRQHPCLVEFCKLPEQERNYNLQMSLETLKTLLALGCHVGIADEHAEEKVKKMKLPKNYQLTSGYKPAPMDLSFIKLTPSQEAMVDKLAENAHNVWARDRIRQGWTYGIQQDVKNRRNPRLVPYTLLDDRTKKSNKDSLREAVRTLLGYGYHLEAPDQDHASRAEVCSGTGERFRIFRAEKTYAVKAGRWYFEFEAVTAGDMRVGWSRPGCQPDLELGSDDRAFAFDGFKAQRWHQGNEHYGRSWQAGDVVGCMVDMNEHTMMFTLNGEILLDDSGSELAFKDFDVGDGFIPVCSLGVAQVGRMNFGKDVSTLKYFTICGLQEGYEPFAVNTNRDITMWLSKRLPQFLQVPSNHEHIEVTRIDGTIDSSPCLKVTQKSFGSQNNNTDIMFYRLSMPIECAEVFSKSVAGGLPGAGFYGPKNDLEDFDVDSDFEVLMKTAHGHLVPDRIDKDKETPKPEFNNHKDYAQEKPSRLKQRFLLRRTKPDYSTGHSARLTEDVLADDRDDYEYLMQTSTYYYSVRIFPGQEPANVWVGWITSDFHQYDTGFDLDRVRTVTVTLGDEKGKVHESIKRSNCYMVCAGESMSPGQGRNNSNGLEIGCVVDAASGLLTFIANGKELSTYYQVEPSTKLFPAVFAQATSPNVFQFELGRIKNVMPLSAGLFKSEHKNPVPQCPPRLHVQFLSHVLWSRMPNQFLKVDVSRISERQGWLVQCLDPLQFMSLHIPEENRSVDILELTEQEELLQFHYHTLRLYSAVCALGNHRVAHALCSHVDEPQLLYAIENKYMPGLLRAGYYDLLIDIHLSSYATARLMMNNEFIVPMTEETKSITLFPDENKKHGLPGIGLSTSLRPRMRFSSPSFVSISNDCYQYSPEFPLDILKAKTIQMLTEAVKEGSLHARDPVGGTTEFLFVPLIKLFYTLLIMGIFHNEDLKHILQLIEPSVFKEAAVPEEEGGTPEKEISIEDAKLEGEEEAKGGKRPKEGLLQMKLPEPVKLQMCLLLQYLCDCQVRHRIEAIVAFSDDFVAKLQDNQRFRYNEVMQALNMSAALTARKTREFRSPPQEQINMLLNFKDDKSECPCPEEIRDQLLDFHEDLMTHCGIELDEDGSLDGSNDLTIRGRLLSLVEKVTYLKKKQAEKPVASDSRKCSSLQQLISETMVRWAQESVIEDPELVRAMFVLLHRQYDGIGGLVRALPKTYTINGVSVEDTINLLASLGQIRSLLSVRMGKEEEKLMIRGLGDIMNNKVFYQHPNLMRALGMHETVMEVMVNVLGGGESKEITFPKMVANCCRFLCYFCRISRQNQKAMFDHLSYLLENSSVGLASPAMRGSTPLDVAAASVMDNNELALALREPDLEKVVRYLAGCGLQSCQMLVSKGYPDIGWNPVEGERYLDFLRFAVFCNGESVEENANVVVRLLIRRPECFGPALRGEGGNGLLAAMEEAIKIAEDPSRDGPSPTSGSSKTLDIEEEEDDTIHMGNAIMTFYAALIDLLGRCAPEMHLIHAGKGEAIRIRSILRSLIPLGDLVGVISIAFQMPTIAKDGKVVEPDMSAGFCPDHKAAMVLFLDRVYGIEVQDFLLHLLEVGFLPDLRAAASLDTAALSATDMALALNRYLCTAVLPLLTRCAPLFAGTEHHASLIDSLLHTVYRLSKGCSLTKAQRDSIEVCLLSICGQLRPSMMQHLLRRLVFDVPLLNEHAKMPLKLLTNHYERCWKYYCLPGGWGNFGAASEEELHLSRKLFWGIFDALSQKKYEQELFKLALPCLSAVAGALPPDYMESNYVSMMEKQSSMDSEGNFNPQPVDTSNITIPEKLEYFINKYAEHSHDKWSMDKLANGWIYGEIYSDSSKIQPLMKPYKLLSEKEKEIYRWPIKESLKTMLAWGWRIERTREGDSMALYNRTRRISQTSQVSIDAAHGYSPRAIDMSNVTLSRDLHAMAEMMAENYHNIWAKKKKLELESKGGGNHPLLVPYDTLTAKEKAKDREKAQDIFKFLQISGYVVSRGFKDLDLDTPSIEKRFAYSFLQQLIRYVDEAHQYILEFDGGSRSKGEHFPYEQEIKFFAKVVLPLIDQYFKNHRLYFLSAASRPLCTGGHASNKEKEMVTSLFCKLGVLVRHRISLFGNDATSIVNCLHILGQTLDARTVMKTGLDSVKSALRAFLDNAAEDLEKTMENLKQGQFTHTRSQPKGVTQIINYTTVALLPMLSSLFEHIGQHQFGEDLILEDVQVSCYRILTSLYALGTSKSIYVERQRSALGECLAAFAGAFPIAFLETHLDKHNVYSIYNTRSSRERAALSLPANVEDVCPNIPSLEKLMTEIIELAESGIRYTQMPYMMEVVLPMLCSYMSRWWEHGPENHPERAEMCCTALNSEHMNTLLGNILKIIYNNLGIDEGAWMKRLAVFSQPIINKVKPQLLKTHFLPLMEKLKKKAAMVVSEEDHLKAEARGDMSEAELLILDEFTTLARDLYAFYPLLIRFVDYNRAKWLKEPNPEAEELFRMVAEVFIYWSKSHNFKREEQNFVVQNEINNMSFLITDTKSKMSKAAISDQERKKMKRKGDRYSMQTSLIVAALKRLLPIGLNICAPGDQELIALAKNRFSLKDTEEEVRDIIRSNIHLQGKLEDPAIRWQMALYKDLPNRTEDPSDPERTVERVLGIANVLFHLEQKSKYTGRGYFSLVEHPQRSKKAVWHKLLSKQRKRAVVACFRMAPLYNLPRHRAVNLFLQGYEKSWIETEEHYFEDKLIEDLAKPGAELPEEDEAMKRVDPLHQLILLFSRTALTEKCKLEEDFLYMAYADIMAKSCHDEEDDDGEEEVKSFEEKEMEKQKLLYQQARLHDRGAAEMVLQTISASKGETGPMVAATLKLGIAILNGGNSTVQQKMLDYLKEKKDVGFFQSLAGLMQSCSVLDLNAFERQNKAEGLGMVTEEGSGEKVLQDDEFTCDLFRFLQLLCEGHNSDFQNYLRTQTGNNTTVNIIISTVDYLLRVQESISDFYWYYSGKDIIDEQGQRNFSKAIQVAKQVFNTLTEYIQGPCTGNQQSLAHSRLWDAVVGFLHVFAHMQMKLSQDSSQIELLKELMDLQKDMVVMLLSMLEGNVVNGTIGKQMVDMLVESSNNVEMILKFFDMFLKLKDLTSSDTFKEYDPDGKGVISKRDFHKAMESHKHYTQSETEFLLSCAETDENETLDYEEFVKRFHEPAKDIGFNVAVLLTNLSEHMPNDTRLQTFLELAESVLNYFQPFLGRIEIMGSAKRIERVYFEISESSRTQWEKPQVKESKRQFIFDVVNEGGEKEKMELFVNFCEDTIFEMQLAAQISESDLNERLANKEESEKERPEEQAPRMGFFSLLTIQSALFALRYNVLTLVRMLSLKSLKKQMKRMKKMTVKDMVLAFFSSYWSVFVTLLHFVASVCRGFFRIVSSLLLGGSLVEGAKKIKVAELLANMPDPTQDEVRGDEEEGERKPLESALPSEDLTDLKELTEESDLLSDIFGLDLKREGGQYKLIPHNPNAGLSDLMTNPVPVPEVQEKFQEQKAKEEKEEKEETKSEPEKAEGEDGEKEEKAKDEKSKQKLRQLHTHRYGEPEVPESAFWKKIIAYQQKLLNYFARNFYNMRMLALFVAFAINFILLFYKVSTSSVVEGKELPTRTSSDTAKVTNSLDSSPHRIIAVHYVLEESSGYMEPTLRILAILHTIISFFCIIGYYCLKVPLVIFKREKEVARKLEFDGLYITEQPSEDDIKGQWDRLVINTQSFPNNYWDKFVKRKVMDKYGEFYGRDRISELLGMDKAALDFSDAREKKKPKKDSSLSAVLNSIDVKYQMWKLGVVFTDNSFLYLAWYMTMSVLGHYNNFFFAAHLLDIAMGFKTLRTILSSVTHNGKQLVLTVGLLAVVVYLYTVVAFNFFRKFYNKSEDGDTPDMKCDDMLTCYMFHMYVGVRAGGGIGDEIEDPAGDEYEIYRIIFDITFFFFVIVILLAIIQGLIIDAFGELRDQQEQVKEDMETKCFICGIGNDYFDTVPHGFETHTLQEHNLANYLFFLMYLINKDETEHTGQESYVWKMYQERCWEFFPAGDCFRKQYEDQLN
The target is the same in experiment [5]. Briefly: Inhibition of Full length wild type mouse RyR2 expressed in Flp-In-T-REx-293 cells assessed as caffeine-induced increase in Ca2+ release in endoplasmic reticulum at 0.0001 to 100 uM by flex-station 3 fluorometer analysis. Conditions: dose 0.0001-100 µM.
Experiment [6] has as its system Cardiomyocyte. The experiment in a line: Inhibition of RyR2 R420W mutant in mouse Cardiomyocyte assessed as 0.5 Hz field-pulse stimulated suppression of abnormal Ca2+ waves at 30 to 100 nM incubated for 15 seconds by ROI analysis. Conditions: dose 30-100 nM, time 15.0 sec.
For experiment [7], the system named is HEK293. The experiment in a line: Inhibition of RyR1 R2163C mutant (unknown origin) expressed in HEK293 cells. Conditions: Homo sapiens.
The target of experiment [8] is Ryanodine receptor 2 (Mus musculus) (UniProt E9Q401). Briefly: Inhibition of Full length mouse RyR2 expressed in human Flp-In-T-REx-293 cells.

Sequence of Ryanodine receptor 2 (E9Q401 whole entry): as above

Usually pEC50 stands for −log10 of the EC50, conventionally taken in molar units. With `COc1ccc(-c2nnn(CC(=O)Nc3ccccc3)n2)cc1`, the pEC50 on Ryanodine receptor 2 was less than 4.52.
The same measure, in the same setting: the figure for `O=C(Cn1nnc(-c2cccc(F)c2)n1)N1CCc2ccccc21` is less than 4.52; for `COc1cccc(-c2nnn(CC(=O)Nc3ccc(F)cc3)n2)c1` it is less than 4.52; for `COc1cccc(-c2nnn(CC(=O)Nc3ccccc3)n2)c1` it is less than 4.52.
The same measure, in the same setting: to `COc1cccc(-c2nnn(CC(=O)N(C)c3ccc(OC)c(OC)c3)n2)c1` belongs less than 4.52.
As for `CN(C(=O)Cn1nnc(-c2cc(F)cc(F)c2)n1)c1ccc(F)cc1`, the inhibition result (in experiment [1]; in the experiment with HEK293 [3]; in experiment [4]) was “inactive” throughout. The inhibition entry (in the experiment on Cardiomyocyte [2]; in [5]; with Cardiomyocyte [6]) was “Active” in each case. Moreover, on Ryanodine receptor 2, the pEC50 was 7.89.
As to `COc1ccc(-c2nnn(CC(=O)N(C)c3ccccc3)n2)cc1`, the pEC50 at Ryanodine receptor 2 is 5.91.
Still for that read-out and setting: to `CN(C(=O)Cn1nnc(-c2ccc(F)cc2)n1)c1ccccc1` belongs 6.66.
On the same count and under the same terms, to `CN(C(=O)Cn1nnc(-c2cccc(F)c2)n1)c1ccc(F)cc1` belongs 7.47; to `CN(C(=O)Cn1nnc(-c2cccc(F)c2)n1)c1ccccc1`, 7.02.
The same measure, in the same setting: to `COc1cc(-c2nnn(CC(=O)N(C)c3ccc(F)cc3)n2)ccc1F` belongs 7.23.
Consider `O=C(Cn1nnc(-c2cccc(F)c2)n1)Nc1ccc(F)cc1`, for which the pEC50 at Ryanodine receptor 2 is less than 4.52.
On to `Nc1nc2ccc(OC(F)(F)F)cc2s1` [RILUZOLE], for which the pEC50 at Ryanodine receptor 2 was 5.00.
Same read-out and setting: to `COc1ccccc1-c1nnn(CC(=O)N(C)c2ccccc2)n1` belongs 5.53.
`COc1cccc(-c2nnn(CC(=O)N(C)c3ccc(F)cc3)n2)c1`: the negative logarithm of the EC50 (pEC50) on Ryanodine receptor 2 is 7.64.
Consider `CCCN(C(=O)Cn1nnc(-c2ccccc2)n1)c1ccccc1`, for which the pEC50 at Ryanodine receptor 2 is 4.53.
Take `COc1ccccc1-c1nnn(CC(=O)Nc2ccccc2)n1`: at Ryanodine receptor 2, the pEC50 is less than 4.52.
Same read-out and setting: to `COC(=O)c1c(C)cc(O)cc1O` [METHYL ORSELLINATE] belongs 5.96; to `O=C(Cn1nnc(-c2cc(F)cc(F)c2)n1)Nc1ccc(F)cc1`, less than 4.52; to `CN(C(=O)Cn1nnc(-c2ccccc2)n1)c1ccc(F)cc1`, 7.30.
Same read-out and setting: the figure for `COc1ccc(N(C)C(=O)Cn2nnc(-c3ccccc3)n2)cc1` is 6.87.
Still for that read-out and setting: to `COc1cccc(-c2nnn(CC(=O)N(C)c3ccccc3)n2)c1` belongs 6.74.
In the case of `COc1ccc(NC(=O)Cn2nnc(-c3ccccc3)n2)cc1`, at Ryanodine receptor 2, the negative-log EC50 (pEC50) is less than 4.52.
Same read-out and setting: to `CN(C(=O)Cn1nnc(-c2ccccc2)n1)c1ccccc1` belongs 6.16.
On the same count and under the same terms, to `O=C(Cn1nnc(-c2ccccc2)n1)Nc1ccccc1` belongs less than 4.52; to `CN(C(=O)Cn1nnc(-c2ccccc2)n1)c1cccc(F)c1`, 6.63.
As to `CN(C(=O)Cn1nnc(-c2ccccc2)n1)c1ccccc1F`, the pEC50 on Ryanodine receptor 2 was 6.07.
Still for that read-out and setting: to `O=C(Cn1nnc(-c2cccc(F)c2)n1)Nc1ccccc1` belongs less than 4.52.
Same read-out and setting: to `COc1ccc(-c2nnn(CC(=O)N(C)c3ccc(F)cc3)n2)cc1OC` belongs 5.94; to `CN(C(=O)Cn1nnc(-c2cc(F)cc(F)c2)n1)c1ccccc1`, 7.66.
Same read-out and setting: the figure for `COc1ccc(N(C)C(=O)Cn2nnc(-c3cccc(OC)c3)n2)cc1` is 7.59; for `COc1ccc(N(C)C(=O)Cn2nnc(-c3cccc(F)c3)n2)cc1` it is 7.55.
Take `CCN(C(=O)Cn1nnc(-c2ccccc2)n1)c1ccccc1`: the inhibition result in the experiment with HEK293 [7] was “inactive”. Further, the inhibition result in experiment [8] was “Active”. Moreover, the pEC50 on Ryanodine receptor 2 is 5.39.
Consider `COc1cccc(N(C)C(=O)Cn2nnc(-c3ccccc3)n2)c1`, for which the pEC50 on Ryanodine receptor 2 was 4.60.
With `CC(C)NCC(O)c1ccc(O)c(O)c1` (stereo not drawn), the inhibition entry in the experiment on Cardiomyocyte [2] and in the experiment on Cardiomyocyte [6] was “inactive” in each case.
`COc1cccc(-c2nnn(CC(=O)N(C)c3ccc(OC)c(F)c3)n2)c1`: the pEC50 at Ryanodine receptor 2 was 7.32.
With `COc1cccc(-c2nnn(CC(=O)N3CCc4ccccc43)n2)c1`, the pEC50 on Ryanodine receptor 2 is less than 4.52.
Still for that read-out and setting: the figure for `CN(C(=O)Cn1nnc(-c2ccccc2F)n1)c1ccccc1` is 6.34; for `COc1ccccc1N(C)C(=O)Cn1nnc(-c2ccccc2)n1` it is less than 4.52.

The record behind these values is ChEMBL document CHEMBL5634156, “A potent and selective cis-amide inhibitor of ryanodine receptor 2 as a candidate for cardiac arrhythmia treatment” (Eur J Med Chem, 2023).
